Measured values reported in patent US10076525B2, “Sex steroid precursors alone or in combination with selective estrogen receptor modulators for the prevention and treatment of dyspareunia in postmenopausal women” (ENDORECHERCHE, INC., priority 2004, dated 2018).
Where a name gives a salt, the structure may show the parent alone.

How the values were obtained:
[1] = test system: rat vagina; assay: Comparison of SERMs: vaginal epithelium morphology in the OVX rat (Example 2); settings: OVX rats, 0.5 mg/kg oral daily
Experimental: Ten to twelve week-old female Sprague-Dawley rats (Crl:CD(SD)Br) (Charles River Laboratory, St-Constant, Canada) weighing 215-265 g at time of ovariectomy were used. The animals were housed individually in an environmentally-controlled room (temperature: 22±3° C.; humidity: 50±20%; 12-h light-12-h dark cycles, lights on at 07:15 h). The animals were allowed free access to tap water and a certified rodent feed (Lab Diet 5002 (pellet), Ralston Purina, St-Louis, Mo.).
Different experiments were performed: two 20-day and two 8-month studies. In each of the two first experiments, the animals were randomly distributed between 3 groups of 13 or 14 animals as follows: 1) Intact control; 2) Ovariectomized (OVX) control; 3) OVX+raloxifene (0.5 mg/kg), or, 3) OVX+LY 363381 (0.5 mg/kg). […] In the other 8-month study, the animals were randomly distributed between 3 groups of 10-11 animals as follows: 1) Intact control; 2) Ovariectomized (OVX) control; 3) OVX+lasofoxifene (0.5 mg/kg). […] The tested compounds were then given once daily by oral gavage as a suspension in 0.4% methylcellulose (0.5 ml/rat) from day 1 to day 20 of the study or from day 1 to week 32 of the study.
Twenty-four hours after the last dosing, the animals were sacrificed under isoflurane anesthesia by exsanguination. The vaginae were collected and immersed in 10% neutral buffered formalin immediately after resection. […] The segments were then routinely processed and embedded in paraffin blocks. When appropriate, all the segments were positioned in the paraffin block in a sequence corresponding to their original anatomical position and oriented perpendicular to the surface of the block, thus allowing the segments to be cut in cross-sections. For each animal, a 4 μm-thick paraffin section was cut and stained with haematoxylin-eosin for morphological examination.

[2] = test system: rat vagina; assay: Vaginal weight after 36 weeks of treatment; assay type: in vivo; settings: OVX rats, 36 wk, versus OVX
Text: (§1) Animals from the intact and OVX control groups received the vehicle alone.
(§2) Twenty-four hours after the last dosing, overnight fasted animals were sacrificed under isoflurane anesthesia by exsanguination at the abdominal aorta (9 animals per group) or by intracardiac perfusion with 10% neutral buffered formalin (5 animals per group). Vaginae from non-perfused animals were collected and weighed, while the vaginae collected from perfused animals were marked with black ink on the ventral side, and then trimmed as described below.
(§3) Data are presented as means±SEM of 8-9 animals per group for vaginal weight or 5 animals per group for vaginal layer thickness determinations. Statistical significance was determined according to the multiple-range test of Duncan-Kramer (Kramer, 1956, Biometrics, 12: 307-310).

[3] = test system: PR; assay: Immunohistochemistry of PR in fifth vaginal segment; assay type: in vivo, rat; settings: OVX rats, 36 wk
Experimental: as §1
(§4) Immunostaining was performed using Zymed SP kits (San Francisco, Calif.). Paraffin sections (4 μm) were deparaffinized in toluene and rehydrated through ethanol. Endogenous peroxidase activity was eliminated by preincubation with 3% H2O2 in methanol for 30 min. A microwave retrieval technique using citrate buffer (Tacha and Chen, 1994) was applied. After cooling the slides, non-specific binding was blocked using 10% goat serum for 20 min. Sections were then incubated for 1.5 h at room temperature with ERα (AB-1, Calbiochem, California), AR (N-20, Santa Cruz Biotechnology, California) or PR (Ab-4, NeoMarkers, California) antibodies, at 1:200, 1:250 and 1:250 respectively. After washing in PBS buffer, sections were incubated with biotinylated anti-rabbit secondary antibody for 10 min and thereafter with streptavidin-peroxidase for another 10 min. Diaminobenzidine was used as the chromogen to visualize the biotin/streptavidin-peroxidase complex, under microscope monitoring. Counterstaining was performed using #2 Gill's hematoxylin for 30 sec. For controls, immunoabsorption with an excess of the peptide used to raise the antibody, or substitution with non immune rabbit IgG, was performed.

[4] = test system: AR; assay: Immunohistochemistry of AR in fifth vaginal segment; assay type: in vivo, rat; settings: OVX rats, 36 wk
Experimental: as §1, §4

[5] = test system: rat vagina; assay: Histomorphometry: thickness of vaginal layers at the fifth segment; assay type: in vivo; settings: OVX rats, 36 wk, fifth segment, mean±SEM
Text: as §1, §2
(§5) The entire vagina of each perfused animal was post-fixed in 10% neutral buffered formalin.
Measurements of the different vaginal layers were performed on the fifth segment (FIG. 1), which is approximately halfway between the middle region and the portio vaginalis uteri (segment 7). […] Images were captured with a DC-330 3CCD color camera (Dage-MTI, Michigan City, Ind., USA) and quantified using Image-Pro Plus 3.0 software (Media Cybernetics, Silver Spring, Md., USA). Thus, using a ×5 objective (Leica Microsystems, Willowdale, Ont., Canada), 3 to 4 thickness measurements per layer were obtained from representative areas of the epithelium and muscularis, and for the three vaginal layers together. The total vaginal thickness, the thickness of the epithelium and the thickness of the muscularis were thus measured. The thickness of the lamina propria was obtained by subtracting the thickness of the epithelium and muscularis from total vaginal thickness.
as §3

[6] = test system: rat vagina; assay: Histological evaluation of epithelium, lamina propria and muscularis in the seven rat vaginal segments; assay type: in vivo; settings: OVX rats, 36 wk
Text: The animals were housed individually and were allowed free access to water and rodent food (Lab Diet 5002, Ralston Purina, St-Louis, Mo.).
as §1, §2, §5
The degree of compactness of collagen fibers in the vagina was categorized as low, moderate and high (FIGS. 6A-6C, respectively), as observed in the area proximal to the epithelium. <<Low>> and <<moderate compactness>> were associated with the presence of coarse collagen fibers loosely or less loosely aggregated together, respectively, while <<high compactness>> was the term used to describe tightly packed fine collagen fibers, displaying a smooth, textured appearance. In all the animals, there were relatively few fibrocytes in proportion to the amount of collagen, and they appeared predominantly flattened and shrunken.

[7] = test system: estrogen receptor; assay: Testing of antiestrogens for SERM function
[8] = Acolbifene 2.5, Premarin 0.5 mg/kg oral, DHEA 80 mg/kg dorsal skin, segment 1

CC1=C(c2ccc(O)cc2)[C@H](c2ccc(OCCN3CCCCC3)cc2)Oc2cc(O)ccc21.Cl [Acolbifene]
mucous cell layer(s) overlying the basal cell layer, middle of the vagina ([1]; 8-month study): one
effect on vaginal weight [2]: no effect
PR: semi-quantitative evaluation of labeled nuclei ([3]; epithelium): 0
PR: semi-quantitative evaluation of labeled nuclei ([3]; lamina propria): 0
PR: semi-quantitative evaluation of labeled nuclei ([3]; muscularis): 0
AR: labeling intensity ([4]; epithelium): ++
AR: semi-quantitative evaluation of labeled nuclei ([4]; epithelium): 2
AR: labeling intensity ([4]; lamina propria): +++
AR: semi-quantitative evaluation of labeled nuclei ([4]; lamina propria): 1
AR: labeling intensity ([4]; muscularis): +++
AR: semi-quantitative evaluation of labeled nuclei ([4]; muscularis): 1
total vaginal wall thickness ([5]; OVX 128±3, intact 262±39): 108±8 μm
lamina propria thickness ([5]; total minus epithelium and muscularis, OVX 76±2, intact 135±28): 60±8 μm
compactness of collagen fibers (lamina propria) [6, 8]: M-M
lamina propria thickness [6, 8]: M-M
epithelium morphology ([6]; Acolbifene 2.5, Premarin 0.5 mg/kg oral, DHEA 80 mg/kg dorsal skin, segment 2): SCM-A
epithelium morphology ([6]; Acolbifene 2.5, Premarin 0.5 mg/kg oral, DHEA 80 mg/kg dorsal skin, segment 3): SCM-A
epithelium morphology ([6]; Acolbifene 2.5, Premarin 0.5 mg/kg oral, DHEA 80 mg/kg dorsal skin, segment 4): SCM-A
epithelium morphology ([6]; Acolbifene 2.5, Premarin 0.5 mg/kg oral, DHEA 80 mg/kg dorsal skin, segment 5): SCM-A
epithelium morphology ([6]; Acolbifene 2.5, Premarin 0.5 mg/kg oral, DHEA 80 mg/kg dorsal skin, segment 6): SCM-A
epithelium morphology ([6]; Acolbifene 2.5, Premarin 0.5 mg/kg oral, DHEA 80 mg/kg dorsal skin, segment 7): SCM-A
epithelium thickness of segment 1 (external opening) ([6]; OVX controls 4-6 layers): 9-11 cell layers
animals showing signs of minimal inflammation ([6]; moderate to severe inflammation in all OVX animals): three out of five

COc1ccc(-c2sc3cc(O)ccc3c2Oc2ccc(OCCN3CCCCC3)cc2)cc1 [Arzoxifene]
function as SERM [7]: found to function as SERMs

CC/C(=C(/c1ccc(OCCN(C)C)cc1)c1cccc(O)c1)c1ccccc1 [Droloxifene]
function as SERM [7]: found to function as SERMs

CC1=C(c2ccc(OC(=O)C(C)(C)C)cc2)[C@H](c2ccc(OCCN3CCCCC3)cc2)Oc2cc(OC(=O)C(C)(C)C)ccc21 [EM-800]
function as SERM [7]: found to function as SERMs

Cc1c(-c2ccc(O)cc2)n(Cc2ccc(OCCN3CCCCC3)cc2)c2ccc(O)cc12 [ERA-923]
mucous cell layer(s) overlying the basal cell layer, middle of the vagina ([1]; 8-month study): one

CC/C(=C(\c1ccccc1)c1ccc(/C=C/C(=O)O)cc1)c1ccccc1 [GW-5638]
function as SERM [7]: found to function as SERMs

C[C@]12CC[C@@H]3c4ccc(O)cc4C[C@@H](CCCCCCCCC[S+]([O-])CCCC(F)(F)C(F)(F)F)[C@H]3[C@@H]1CC[C@@H]2O (stereo partly shown) [ICI 182,780]
function as SERM [7]: found not to function as SERM

COc1ccc(-c2sc3cc(O)ccc3c2Oc2ccc(OCCN3CCCCC3)cc2)cc1 [LY 363381]
mucous cell layer(s) overlying the basal cell layer, middle of the vagina ([1]; 20-day study): many

O=C(c1ccc(OCCN2CCCCC2)cc1)c1c(-c2ccc(O)cc2)sc2cc(O)ccc12 [Raloxifene]
mucous cell layer(s) overlying the basal cell layer, middle of the vagina ([1]; 20-day study): many
function as SERM [7]: found to function as SERMs

Cc1c(-c2ccc(O)cc2)n(Cc2ccc(OCCN3CCCCCC3)cc2)c2ccc(O)cc12 [TSE-424]
mucous cell layer(s) overlying the basal cell layer, middle of the vagina ([1]; 8-month study): one
function as SERM [7]: found to function as SERMs

CC/C(=C(\c1ccccc1)c1ccc(OCCN(C)C)cc1)c1ccccc1 [Tamoxifen, (Z)-2-[4-(1,2-diphenyl-1-butenyl)]-N,N-dimethylethanamine]
function as SERM [7]: found to function as SERMs

Oc1ccc2c(c1)CC[C@H](c1ccccc1)[C@@H]2c1ccc(OCCN2CCCC2)cc1 [lasofoxifene, (−)-cis-(5R,6S)-6-phenyl-5-[4-(2-pyrrolidin-1-ylethoxy)phenyl]-5,6,7,8-tetrahydronaphthalen-2-ol, D-(−)-tartrate salt]
mucous cell layer(s) overlying the basal cell layer, middle of the vagina ([1]; 8-month study): many
function as SERM [7]: found to function as SERMs
